Data on two compounds can be found in patent US7972815B2, “Method of producing sugar chain using human G4 polypeptide” (Kyowa Hakko Kirin Co., Ltd., priority 1999, dated 2011).

What all share (assay type): biochemical
Assay [1] deals with T1, β1,3-N-acetylglucosaminyl transferase (G4) (Homo sapiens, UniProt Q9Y2A9, R328H).
T1 construct: made in house; host or cells: Sf21 insect cells infected with recombinant baculovirus from pVL1393-F2G4
T1 sequence (Q9Y2A9 38-372 R328H): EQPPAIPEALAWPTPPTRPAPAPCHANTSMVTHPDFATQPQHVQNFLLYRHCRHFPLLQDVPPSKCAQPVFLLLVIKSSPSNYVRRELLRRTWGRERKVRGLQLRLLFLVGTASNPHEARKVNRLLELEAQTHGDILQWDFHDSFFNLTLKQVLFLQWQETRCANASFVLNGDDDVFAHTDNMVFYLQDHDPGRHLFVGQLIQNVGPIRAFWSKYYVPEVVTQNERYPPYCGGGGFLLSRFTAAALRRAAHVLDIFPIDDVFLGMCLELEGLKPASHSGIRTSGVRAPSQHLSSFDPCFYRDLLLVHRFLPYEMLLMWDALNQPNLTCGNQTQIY
The assay can be described thus: Substrate specificity of G4 with unlabeled oligosaccharides (HPAE/PAD). The settings on record: for Relative activity (%): unlabeled substrate, 37° C., 16 hours, activity on LNnT defined as 100%. Here is the method:
(§1) The reaction using the glycosyltransferase was carried out as follows. The reaction was carried out at 37° C. for 16 hours in 40 μl of an assay solution [50 mmol/l MOPS (pH 7.5), 5 mmol/l UDP-GlcNAc (SIGMA), 5 mmol/l MnCl2, […] and 10 μl of the above eluate]. Next, the reaction solution was treated at 100° C. for 5 minutes and then centrifuged at 10,000×g for 20 minutes to obtain the supernatant, and a portion thereof was analyzed using HPAE/PAD (High Performance Anion Pulsed Amperometoric Detection; manufactured by DIONEX). The specific method was carried out in the usual way [Anal. Biochem., 189, 151 (1990), J. Biol. Chem., 273, 433 (1998)].
(§2) As substrates, the following unlabeled oligosaccharides were used: lactose (Galβ1-4Glc), N-acetyllactosamine (Galβ1-4GlcNAc, hereinafter referred to as “LacNAc” in some cases), LNnT, LNT and lacto-N-neohexaose (Galβ1-4GlcNACβ1-3Galβ1-4GlcNAcβ1-3Galβ1-4Glc, hereinafter referred to as “LNnH”).
(§3) For each substrate, the reaction was carried using the assay solution with or without UDP-GlcNAc (sugar donor), and then HPLC was carried out and peaks appeared only in the assay solution containing UDP-GlcNAc were defined as products.
(§4) In identifying the product, coincidence of its elution time with that of a standard sugar chain was used as the index. As the standard sugar chains, GlcNAcβ1-3Galβ1-4Glc, GlcNAcβ1-3Galβ1-4GlcNAc and GlcNAcβ1-3Galβ1-4GlcNAcβ1-3Galβ1-4Glc were used.

Assay [2] deals with T2, β1,3-N-acetylglucosaminyl transferase (G7) (Homo sapiens, UniProt Q9C0J1).
T2 construct: made in house; host or cells: Sf21 insect cells infected with recombinant baculovirus from pVL1393-F2G7
T2 sequence (Q9C0J1 56-378): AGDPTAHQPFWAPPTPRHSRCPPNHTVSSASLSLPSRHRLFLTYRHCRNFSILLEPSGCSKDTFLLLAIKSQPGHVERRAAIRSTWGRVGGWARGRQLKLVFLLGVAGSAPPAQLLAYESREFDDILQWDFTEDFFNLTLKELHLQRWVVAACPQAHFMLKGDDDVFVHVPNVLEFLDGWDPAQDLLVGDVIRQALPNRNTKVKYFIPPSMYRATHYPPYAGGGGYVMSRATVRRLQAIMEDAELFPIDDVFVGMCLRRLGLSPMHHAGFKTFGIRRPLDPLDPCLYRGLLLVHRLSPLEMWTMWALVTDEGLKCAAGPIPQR
The assay can be described thus: Substrate specificity of G7 with unlabeled oligosaccharides. Particulars: 15.5 hours; for Relative activity (%) G7: unlabeled substrate, 37° C., activity for LNnT defined as 100%. How it is done:
as §1, §2, §3, §4
Substrate specificity of the FLAG peptide-fused G7 polypeptide was examined using the method shown in Example 11(2). The enzyme reaction was carried out at 37° C. for 15.5 hours.

In assay [3] the target is T3, β1,3-N-acetylglucosaminyl transferase (G3) (Homo sapiens, UniProt Q9NY97).
T3 construct: made in house; host or cells: Sf21 insect cells infected with recombinant baculovirus from pVL1393-F2G3
T3 sequence (Q9NY97 31-397): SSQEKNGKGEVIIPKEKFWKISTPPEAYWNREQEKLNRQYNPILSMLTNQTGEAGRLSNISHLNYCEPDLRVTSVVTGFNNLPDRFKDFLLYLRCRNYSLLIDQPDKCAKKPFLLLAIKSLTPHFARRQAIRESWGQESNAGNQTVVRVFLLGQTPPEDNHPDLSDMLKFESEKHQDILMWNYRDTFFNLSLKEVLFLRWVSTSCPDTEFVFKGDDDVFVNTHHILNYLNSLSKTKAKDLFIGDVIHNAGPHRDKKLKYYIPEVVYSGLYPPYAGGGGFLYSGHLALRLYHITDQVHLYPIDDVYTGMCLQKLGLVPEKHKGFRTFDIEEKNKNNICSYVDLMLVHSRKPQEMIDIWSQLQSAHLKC
The assay can be described thus: Substrate specificity of G3 with pyridylaminated oligosaccharides. Particulars: 2 hours; for Relative activity (%): pyridylaminated substrate, 37° C., activity on LNnT defined as 100%. How it is done: The method shown in Example 8 was used as the activity measuring method. Specifically, after the reaction at 37° C. for 14.5 hours in 30 μl of an assay solution [200 mmol/l of MOPS (pH 7.5), 20 mmol/l of UDP-GlcNAc (SIGMA), 20 mmol/l of MnCl2, 50 μmol/l of pyridylaminated sugar chain substrate and 15 μl of the above eluate], products were detected by HPLC. As substrates, LNnT, lacto-N-tetraose (Galβ1-3GlcNAcβ1-3Galβ1-4Glc, hereinafter referred to as “LNT”), lacto-N-fucopentaose II (Galβ1-3(Fucα1-4)GlcNAcβ1-3Galβ1-4Glc, hereinafter referred to as “LNFP-II”), lacto-N-fucopentaose III (Galβ1-4(Fucα1-3)GlcNAcβ1-3Galβ1-4Glc, hereinafter referred to as “LNFP-III”), lacto-N-fucopentaose V (Galβ1-3GlcNAcβ1-3Galβ1-4(Fucα1-3)Glc, hereinafter referred to as “LNFP-V”) and lacto-N-difucohexaose II (Galβ1-3(Fucα1-4)GlcNAcβ1-3Galβ1-4(Fucα1-3)Glc, hereinafter referred to as “LNDFH-II”) (all manufactured by Oxford Glycosystems) were used after fluorescently labeling them with aminopyridine. Fluorescence labeling of these substrates were carried out in accordance with the usual method [Agric. Biol. Chem., 54, 2169 (1990)].
as §3
The assay solution after completion of the reaction was treated at 100° C. for 5 minutes and then centrifuged at 10,000×g for 5 minutes, and a portion (5 μl) of the thus obtained supernatant was applied to HPLC.
The HPLC was carried out by using TSK-gel ODS-80Ts column (4.6×300 mm; Tosoh); 0.02 mol/l ammonium acetate buffer (pH 4.0) was used as the eluate at an elution temperature of 50° C. and at a flow rate of 0.5 ml/min.
Products were detected by using a fluorescence spectrum photometer FP-920 (JASCO Corporation) (excitation wavelength 320 nm, radiation wavelength 400 nm).
Substrate specificity of a β1,3-N-acetylglucosaminyl transferase (G3) was examined using the FLAG peptide-fused G3 polypeptide purified in Example 14.
Substrate specificity of the FLAG peptide-fused G3 polypeptide was examined by the method shown in Example 11(1). The reaction was carried out at 37° C. for 2 hours.

Consider `CC(=O)N[C@H]1[C@H](O[C@H]2[C@@H](O)[C@@H](CO)O[C@@H](O[C@H]3[C@H](O)[C@@H](O)C(O)O[C@@H]3CO)[C@@H]2O)O[C@H](CO)[C@@H](O[C@@H]2O[C@H](CO)[C@H](O)[C@H](O)[C@H]2O)[C@@H]1O` (mixture of isomers) [LNnT, lacto-N-neotetraose], for which, in assay [1] (unlabeled LNnT as substrate), the “conversion ratio of the substrate into the product” value is recorded as 1.7%. Besides, the “Relative activity (%)” value in assay [1] and in assay [3] was 100% each time. In addition, the “conversion efficiency of the substrate into the product” value in assay [2] (unlabeled LNnT as substrate) was found to be 3.07%; in assay [3] (pyridylaminated LNnT as substrate) it was 82.5%. Also, in assay [2], the “Relative activity (%) G7” value was 100%.

For the compound `CC(=O)N[C@H]1[C@H](O[C@H]2[C@@H](O)[C@@H](CO)O[C@@H](O[C@H]3[C@H](O)[C@@H](O)C(O)O[C@@H]3CO)[C@@H]2O)O[C@H](CO)[C@@H](O)[C@@H]1O[C@@H]1O[C@H](CO)[C@H](O)[C@H](O)[C@H]1O` (stereo partly drawn) [LNT, lacto-N-tetraose], the “Relative activity (%)” value in assay [1] came to 114%; in assay [3], 3.7%. In addition, in assay [2], the “Relative activity (%) G7” value is recorded as 0%.
